# Assay results from PMC7340670, “Phase I study of TAS-115, a novel oral multi-kinase inhibitor, in patients with advanced solid tumors” (Investigational New Drugs, 2019).
# “Also recorded” adds a separate entry of the source. Like-named read-outs stand apart in the source and are kept apart here.
# How the values were obtained:
# [1] = Plasma pharmacokinetics in the phase I study; type: in vivo, human; conditions: for half-life / AUC(0-t) / Cmax / Tmax: human, plasma; for half-life: read-out: t1/2 Mean (SD) (converted); for AUC(0-t): read-out: AUC0-24 Mean (SD); for Cmax: read-out: Cmax Mean (SD)
# Protocol: Blood samples were collected for plasma PK assessments pre-dosing and at 1, 2, 3, 4, 6, 8, 12, and 24 h after TAS-115 administration on Days 1 and 8 of cycle 1 in part 1, and on Days 1, 8, and 19 of cycle 1 in part 2 (only pre-dosing on Day 8). TAS-115 concentrations were measured by validated liquid chromatography-tandem mass spectrometry. A preliminary assessment of the effect of food on the PK profile was performed. Blood samples after administration under fed and empty stomach conditions were collected from the first six patients in the expansion part. Pharmacokinetic parameters were determined using non-compartmental analyses (Phoenix® WinNonlin® version 6.4; Certara LP, Princeton, NJ, USA).
# [2] = system: tumor growth and abnormal bone remodeling; parameters: method as in PMID 24140932, PMID 27539855, PMID 27736957; conditions: cited from earlier work
# recombinant MET = system: recombinant MET; parameters: method as in PMID 24140932; conditions: read-out: IC50 against recombinant MET; cited from earlier work
# [3] = system: AKT and ERK1/2 phosphorylation; parameters: method as in PMID 27539855, PMID 27736957; conditions: mouse osteoclasts in vitro; cited from earlier work
# bone lesions = assay: Bone scintigraphy / bone scan index (BSI) response; type: in vivo, human
# Protocol: (§1) The secondary objectives were to investigate the PK profile, safety, tolerability, antitumor activity, and pharmacodynamic profile of TAS-115. AEs were graded according to the CTCAE Version 4.03. Response was assessed by radiologic imaging at 6 and 12 weeks from the first dose, and every 12 weeks thereafter. Antitumor effect was evaluated by investigators using Response Evaluation Criteria in Solid Tumors (RECIST) Version 1.1 [17]. If a patient had bone lesions, evaluation was performed using bone scintigraphy and bone scan index (BSI) were calculated by BONENAVI® software (FUJIFILM Toyama Chemical, Co., Ltd., Japan). BSI response was defined as ≥30% reduction in BSI [18]. An exploratory objective was to assess changes in protein levels of soluble MET (sMET), VEGF, and soluble VEGFR2 (sVEGFR2) in plasma, and HGF in serum as pharmacodynamic markers.
# patients = system: patients; parameters: method as in data on file; conditions: tablet formulation, ref data on file, cited from earlier work
# VEGF = assay: Pharmacodynamic marker: VEGF in plasma; type: in vivo, human
# Protocol: as §1
# For pharmacodynamic analyses, blood samples were collected on Days 1 and 22 (before dosing, each) in part 1, and Days 1 (pre-dosing) and 19 (pre- and post 6 h) in part 2 and the expansion part. […]
# The planned sample size was up to 90 patients, and it was not based on the formal calculation because of experimental phase I trial. For pharmacodynamics parameters, P values were calculated using the paired t-test for measured values from merged doses. […]
# recombinant VEGFR2 = system: recombinant VEGFR2; parameters: method as in PMID 24140932; conditions: read-out: IC50 against recombinant VEGFR2; cited from earlier work
# [4] = system: osteoclast differentiation; parameters: method as in data on file; conditions: in vitro; ref data on file; cited from earlier work
# [5] = expansion part, 650 mg, six patients, not statistically significant
# [6] = oral, 200 mg/day, Part 1, Day 1 (single administration), 200 mg/day, n=3
# [7] = oral, 200 mg/day, Part 1, Day 8 (multiple administration), 200 mg/day, n=3
# [8] = oral, 300 mg/day, Part 1, Day 1 (single administration), 300 mg/day, n=3
# [9] = oral, 300 mg/day, Part 1, Day 8 (multiple administration), 300 mg/day, n=2
# [10] = oral, 450 mg/day, Part 1, Day 1 (single administration), 450 mg/day, n=3
# [11] = oral, 450 mg/day, Part 1, Day 8 (multiple administration), 450 mg/day, n=3
# [12] = oral, 650 mg/day, Expansion part, Empty Stomach, 650 mg/day, n=6
# [13] = oral, 650 mg/day, Expansion part, Fed, 650 mg/day, n=6
# [14] = oral, 650 mg/day, Part 1, Day 1 (single administration), 650 mg/day, n=6
# [15] = oral, 650 mg/day, Part 1, Day 8 (multiple administration), 650 mg/day, n=5
# [16] = oral, 650 mg/day, Part 2, Day 1 (single administration), 650 mg/day, n=6
# [17] = oral, 650 mg/day, Part 2, Day 19 (multiple administration), 650 mg/day, n=6
# [18] = oral, 800 mg/day, Part 1, Day 1 (single administration), 800 mg/day, n=6
# [19] = oral, 800 mg/day, Part 1, Day 8 (multiple administration), 800 mg/day, n=6
structure (smiles),measurement,setting,value
CNC(=O)c1cc2c(Oc3ccc(NC(=S)NC(=O)Cc4ccccc4)cc3F)ccnc2cc1OC [TAS-115],dose dependence of AUC0–24 / systemic exposure,"[1]; after single administration, part 1",increased almost dose-proportionally; also recorded: increased dose-proportionally over the tested range from 200 mg to 650 mg
same,"geometric mean ratio (90% CI) of AUC0–24, fed to empty stomach condition",[1]; [5],0.812 (0.414–1.593)
same,"geometric mean ratio (90% CI) of Cmax, fed to empty stomach condition",[1]; [5],0.545 (0.243–1.224)
same,half-life,"[1]; oral, 200 mg/day, Part 1, Day 1 (single administration), 200 mg/day, n=2",15.2 h
same,AUC(0-t),[1]; [6],20000 ng·h/mL
same,Cmax,[1]; [6],2490 ng/mL
same,Tmax,"[1]; oral, 200 mg/day, Part 1, Day 1 (single administration), 200 mg/day, n=3, read-out: tmax Median",1 h
same,AUC(0-t),[1]; [7],22700 ng·h/mL
same,Cmax,[1]; [7],2950 ng/mL
same,half-life,[1]; [7],26.6 h
same,Tmax,"[1]; oral, 200 mg/day, Part 1, Day 8 (multiple administration), 200 mg/day, n=3, read-out: tmax Median",1 h
same,AUC(0-t),[1]; [8],23200 ng·h/mL
same,Cmax,[1]; [8],3500 ng/mL
same,half-life,[1]; [8],20.4 h
same,Tmax,"[1]; oral, 300 mg/day, Part 1, Day 1 (single administration), 300 mg/day, n=3, read-out: tmax Median",1 h
same,AUC(0-t),[1]; [9],32500 ng·h/mL
same,Cmax,[1]; [9],3900 ng/mL
same,half-life,[1]; [9],15.9 h
same,Tmax,"[1]; oral, 300 mg/day, Part 1, Day 8 (multiple administration), 300 mg/day, n=2, read-out: tmax Median",1.5 h
same,AUC(0-t),[1]; [10],28800 ng·h/mL
same,Cmax,[1]; [10],4540 ng/mL
same,half-life,[1]; [10],12.6 h
same,Tmax,"[1]; oral, 450 mg/day, Part 1, Day 1 (single administration), 450 mg/day, n=3, read-out: tmax Median",1 h
same,AUC(0-t),[1]; [11],37000 ng·h/mL
same,Cmax,[1]; [11],4310 ng/mL
same,half-life,[1]; [11],11.4 h
same,Tmax,"[1]; oral, 450 mg/day, Part 1, Day 8 (multiple administration), 450 mg/day, n=3, read-out: tmax Median",1 h
same,AUC(0-t),[1]; [12],39300 ng·h/mL
same,Cmax,[1]; [12],4760 ng/mL
same,Tmax,"[1]; oral, 650 mg/day, Expansion part, Empty Stomach, 650 mg/day, n=6, read-out: tmax Median",2 h
same,AUC(0-t),[1]; [13],41700 ng·h/mL
same,Cmax,[1]; [13],3900 ng/mL
same,Tmax,"[1]; oral, 650 mg/day, Expansion part, Fed, 650 mg/day, n=6, read-out: tmax Median",5 h
same,AUC(0-t),[1]; [14],59700 ng·h/mL
same,Cmax,[1]; [14],7700 ng/mL
same,half-life,[1]; [14],10.3 h
same,Tmax,"[1]; oral, 650 mg/day, Part 1, Day 1 (single administration), 650 mg/day, n=6, read-out: tmax Median",1 h
same,half-life,"[1]; oral, 650 mg/day, Part 1, Day 8 (multiple administration), 650 mg/day, n=4",8.7 h
same,AUC(0-t),[1]; [15],54500 ng·h/mL
same,Cmax,[1]; [15],5040 ng/mL
same,Tmax,"[1]; oral, 650 mg/day, Part 1, Day 8 (multiple administration), 650 mg/day, n=5, read-out: tmax Median",2 h
same,half-life,"[1]; oral, 650 mg/day, Part 2, Day 1 (single administration), 650 mg/day, n=5",14.5 h
same,AUC(0-t),[1]; [16],49800 ng·h/mL
same,Cmax,[1]; [16],7510 ng/mL
same,Tmax,"[1]; oral, 650 mg/day, Part 2, Day 1 (single administration), 650 mg/day, n=6, read-out: tmax Median",1 h
same,AUC(0-t),[1]; [17],56700 ng·h/mL
same,Cmax,[1]; [17],7370 ng/mL
same,half-life,[1]; [17],16.8 h
same,Tmax,"[1]; oral, 650 mg/day, Part 2, Day 19 (multiple administration), 650 mg/day, n=6, read-out: tmax Median",1 h
same,AUC(0-t),[1]; [18],37800 ng·h/mL
same,Cmax,[1]; [18],4910 ng/mL
same,half-life,[1]; [18],13.7 h
same,Tmax,"[1]; oral, 800 mg/day, Part 1, Day 1 (single administration), 800 mg/day, n=6, read-out: tmax Median",1 h
same,AUC(0-t),[1]; [19],44600 ng·h/mL
same,Cmax,[1]; [19],5220 ng/mL
same,half-life,[1]; [19],12.8 h
same,Tmax,"[1]; oral, 800 mg/day, Part 1, Day 8 (multiple administration), 800 mg/day, n=6, read-out: tmax Median",1.5 h
same,Tmax,"[1]; po, oral administration, across dose levels, read-out: median time to maximum concentration (tmax)",1 to 2 h
same,accumulation,"[1]; multiple dosing for 8 days, part 1",no accumulation
same,antitumor effect in mouse xenograft models,[2],"potent antitumor effect, inhibiting tumor growth and abnormal bone remodeling"
same,IC50,recombinant MET,32 nM
same,"HGF, and VEGF-induced phosphorylation of signaling factors (AKT and ERK1/2)",[3],suppressed
same,antitumor effect in a patient with CRPC with multiple bone metastases,bone lesions; 650 mg 5-on/2-off,notable improvement was observed in the bone scan
same,antitumor effect in a patient with epithelioid sarcoma with multiple metastases,"bone lesions; 650 mg 5-on/2-off, 6 weeks after the first administration",marked decrease of hot spots on bone scans and reduction in fluorodesoxyglucose uptake
same,BSI response rate (≥30% reduction in BSI),"bone lesions; patients with bone lesions, 14 of 25",56.0%
same,absorption,patients,saturated between 100 and 1200 mg
same,dose-limiting toxicities (DLTs),"patients; ten patients, 100, 200, 400, 800, 1200 mg SID and 400 mg BID",no dose-limiting toxicities (DLTs) were observed
same,change of VEGF,"VEGF; 6 h post-dose on Day 19 compared with pre-dose on Day 19, P = .0844",increase
same,marked alterations of VEGF from Day 1,VEGF; in vivo,not observed
same,IC50,recombinant VEGFR2,30 nM
same,osteoclast differentiation induced by M-CSF and RANKL,[4],dose-dependent inhibition
